# Data: ChEMBL document CHEMBL3885861, “Open TG-GATES”
# Organism: Rattus norvegicus
# Assay: Open TG-GATES - Regimen: Single
# Assay type: toxicity, organism-based, Sprague-Dawley
# Set-up: regimen Single, gender Male, age 6 weeks
# Details: in vivo, po, 0 mg/kg, route gavage, dose level Control; for APTT / Bas / Eos / Fbg / Hb / Ht / Lym / MCH / MCHC / MCV / Mono / PT / Plat / RBC / Ret / WBC: tissue Blood; for KIDNEY_L / KIDNEY_R / KIDNEY_TOTAL: tissue Kidney; for LIVER: tissue Liver
smiles,measurement,setting,value
C#C[C@]1(O)CC[C@H]2[C@@H]3CCc4cc(O)ccc4[C@H]3CC[C@@]21C [ETHINYL ESTRADIOL],TERMINAL_BW,3 h,196.6 g
same,APTT,3 h,16.9 s
same,Bas,3 h,0%
same,Eos,3 h,0.8%
same,Fbg,3 h,256 mg/dL
same,Hb,3 h,13.2 g/dL
same,Ht,3 h,39.9%
same,Lym,3 h,79.4%
same,MCH,3 h,21.8 pg
same,MCHC,3 h,33.1%
same,MCV,3 h,66 fL
same,Mono,3 h,3.8%
same,PT,3 h,12.2 s
same,Plat,3 h,117 x10_4/uL
same,RBC,3 h,604.8 x10_4/ul
same,Ret,3 h,9.9%
same,WBC,3 h,82.1 x10_2/uL
same,KIDNEY_L,3 h,0.8 g
same,KIDNEY_R,3 h,0.8 g
same,KIDNEY_TOTAL,3 h,1.7 g
same,LIVER,3 h,8.6 g
same,ALP,"3 h, tissue Plasma",1558.8 IU/L
same,ALT,"3 h, tissue Plasma",44 IU/L
same,AST,"3 h, tissue Plasma",77.6 IU/L
same,BUN,"3 h, tissue Plasma",10.6 mg/dL
same,CRE,"3 h, tissue Plasma",0.2 mg/dL
same,Ca,"3 h, tissue Plasma",11.3 mg/dL
same,Cl,"3 h, tissue Plasma",107 meq/L
same,DBIL,"3 h, tissue Plasma",0.02 mg/dL
same,IP,"3 h, tissue Plasma",8.6 mg/dL
same,K,"3 h, tissue Plasma",4 meq/L
same,LDH,"3 h, tissue Plasma",56 IU/L
same,Na,"3 h, tissue Plasma",142.4 meq/L
same,PL,"3 h, tissue Plasma",157.6 mg/dL
same,RALB,"3 h, tissue Plasma",2.6 g/dL
same,TBIL,"3 h, tissue Plasma",0.044 mg/dL
same,TC,"3 h, tissue Plasma",86.2 mg/dL
same,TP,"3 h, tissue Plasma",5.5 g/dL
same,gamma-GTP,"3 h, tissue Plasma",1.2 IU/L
same,TERMINAL_BW,6 h,194 g
same,APTT,6 h,16.2 s
same,Bas,6 h,0%
same,Eos,6 h,1%
same,Fbg,6 h,265.8 mg/dL
same,Hb,6 h,13.2 g/dL
same,Ht,6 h,39.3%
same,Lym,6 h,75%
same,MCHC,6 h,33.6%
same,MCV,6 h,63.4 fL
same,PT,6 h,12.3 s
same,Plat,6 h,123.8 x10_4/uL
same,RBC,6 h,620.2 x10_4/ul
same,Ret,6 h,9.8%
same,WBC,6 h,90.8 x10_2/uL
same,KIDNEY_L,6 h,0.8 g
same,KIDNEY_R,6 h,0.8 g
same,KIDNEY_TOTAL,6 h,1.7 g
same,LIVER,6 h,7.6 g
same,ALP,"6 h, tissue Plasma",1686.2 IU/L
same,ALT,"6 h, tissue Plasma",42 IU/L
same,AST,"6 h, tissue Plasma",79.2 IU/L
same,BUN,"6 h, tissue Plasma",7.6 mg/dL
same,CRE,"6 h, tissue Plasma",0.2 mg/dL
same,Ca,"6 h, tissue Plasma",10.8 mg/dL
same,Cl,"6 h, tissue Plasma",109.4 meq/L
same,DBIL,"6 h, tissue Plasma",0.012 mg/dL
same,IP,"6 h, tissue Plasma",10.2 mg/dL
same,K,"6 h, tissue Plasma",4 meq/L
same,LDH,"6 h, tissue Plasma",53.6 IU/L
same,Na,"6 h, tissue Plasma",144.6 meq/L
same,PL,"6 h, tissue Plasma",122.6 mg/dL
same,RALB,"6 h, tissue Plasma",2.6 g/dL
same,TBIL,"6 h, tissue Plasma",0.046 mg/dL
same,TC,"6 h, tissue Plasma",75.6 mg/dL
same,TP,"6 h, tissue Plasma",5.4 g/dL
same,gamma-GTP,"6 h, tissue Plasma",1 IU/L
same,TERMINAL_BW,9 h,195.8 g
same,Bas,9 h,0%
same,Eos,9 h,1%
same,Fbg,9 h,265.2 mg/dL
same,Hb,9 h,12.8 g/dL
same,Ht,9 h,38%
same,Lym,9 h,72.2%
same,MCH,9 h,21.8 pg
same,MCHC,9 h,33.6%
same,MCV,9 h,64.8 fL
same,PT,9 h,12.4 s
same,Plat,9 h,119.3 x10_4/uL
same,RBC,9 h,588 x10_4/ul
same,Ret,9 h,9.5%
same,WBC,9 h,73.4 x10_2/uL
same,KIDNEY_L,9 h,0.9 g
same,KIDNEY_R,9 h,0.9 g
same,KIDNEY_TOTAL,9 h,1.7 g
same,LIVER,9 h,7 g
same,ALP,"9 h, tissue Plasma",1662.8 IU/L
same,ALT,"9 h, tissue Plasma",42 IU/L
same,AST,"9 h, tissue Plasma",75 IU/L
same,BUN,"9 h, tissue Plasma",9.2 mg/dL
same,CRE,"9 h, tissue Plasma",0.2 mg/dL
same,Ca,"9 h, tissue Plasma",10.5 mg/dL
same,Cl,"9 h, tissue Plasma",107.8 meq/L
same,DBIL,"9 h, tissue Plasma",0.01 mg/dL
same,IP,"9 h, tissue Plasma",10.7 mg/dL
same,K,"9 h, tissue Plasma",3.8 meq/L
same,LDH,"9 h, tissue Plasma",42 IU/L
same,Na,"9 h, tissue Plasma",144 meq/L
same,PL,"9 h, tissue Plasma",125.4 mg/dL
same,RALB,"9 h, tissue Plasma",2.5 g/dL
same,TBIL,"9 h, tissue Plasma",0.04 mg/dL
same,TC,"9 h, tissue Plasma",77 mg/dL
same,TP,"9 h, tissue Plasma",5.2 g/dL
same,gamma-GTP,"9 h, tissue Plasma",1.2 IU/L
same,TERMINAL_BW,24 h,203.2 g
same,APTT,24 h,16.4 s
same,Bas,24 h,0%
same,Eos,24 h,1%
same,Fbg,24 h,245.4 mg/dL
same,Hb,24 h,12.9 g/dL
same,Ht,24 h,38.3%
same,Lym,24 h,76.2%
same,MCH,24 h,21.6 pg
same,MCHC,24 h,33.6%
same,MCV,24 h,64.4 fL
same,Mono,24 h,3.6%
same,PT,24 h,12.5 s
same,Plat,24 h,112.7 x10_4/uL
same,RBC,24 h,594.4 x10_4/ul
same,Ret,24 h,8.5%
same,WBC,24 h,103.2 x10_2/uL
same,KIDNEY_L,24 h,0.9 g
same,KIDNEY_R,24 h,0.9 g
same,KIDNEY_TOTAL,24 h,1.7 g
same,LIVER,24 h,8.9 g
same,ALP,"24 h, tissue Plasma",1908.8 IU/L
same,ALT,"24 h, tissue Plasma",52.2 IU/L
same,AST,"24 h, tissue Plasma",78.6 IU/L
same,BUN,"24 h, tissue Plasma",13.8 mg/dL
same,CRE,"24 h, tissue Plasma",0.2 mg/dL
same,Cl,"24 h, tissue Plasma",104.8 meq/L
same,DBIL,"24 h, tissue Plasma",0.01 mg/dL
same,GLC,"24 h, tissue Plasma",194.2 mg/dL
same,IP,"24 h, tissue Plasma",7.7 mg/dL
same,LDH,"24 h, tissue Plasma",62.4 IU/L
same,Na,"24 h, tissue Plasma",141 meq/L
same,PL,"24 h, tissue Plasma",136.2 mg/dL
same,RALB,"24 h, tissue Plasma",2.5 g/dL
same,TBIL,"24 h, tissue Plasma",0.034 mg/dL
